# Data taken from US7495024B2, “Phenylalkyl N-hydroxyureas for combating atherosclerotic plaque” (VIA Pharmaceuticals, Inc., priority 2006, dated 2009).
# Assays:
# ApoE-deficient mice [1] = assay: Gross pathological evaluation of aortas with developed atherosclerotic plaque (Example 2, FIG. 2); format: in vivo; settings: 28-week old ApoE-deficient mice, 28 days
# Text: In Examples 1 and 2 knockout mice deficient in producing the protein Apolipoprotein E [apoE] were used. ApoE-deficient mice are known to spontaneously develop atherosclerotic plaque at 12-16 weeks, which process is accelerated by feeding the mice a high fat diet. Because the atherosclerotic lesions found in these mice are histologically similar to those found in humans, the ApoE-deficient mice are used as a model for assessing the effects of a drug on atherosclerotic plaque in humans.
# Four week old female ApoE-deficient knockout mice were fed a high-fat diet set forth in Example 1 for a period of 24 weeks to allow atherosclerotic plaque to build-up. […]
# The entire treatment was carried out by administering the vehicle or the dosage to the mice once a day for 28 days. […] At terminal sacrifice, aortas were harvested from 16 mice in each of the treatment groups and grossly evaluated, selected tissue from the remaining 4 mice per group were evaluated grossly and fixed and processed for histopathological analysis and quantitative determination of plaque burden. […]
# [2] = tested on: patients with carotid stenosis undergoing elective carotid endarterectomy; assay: Randomized, double blind, placebo-controlled study in patients with carotid stenosis undergoing carotid endarterectomy (Example 4); format: in vivo, human; settings: 100 mg daily oral
# Experimental: In this randomized, double blind, placebo-controlled study, groups of 40 clinically stable patients between the age of 30 and 80 years with carotid stenosis undergoing elective carotid endarterectomy are treated by orally administering 100 mg of Compound X or placebo. A total of 80 patients are enrolled. Baseline assessments are performed at the start of treatment and these baseline results are compared with repeat assessments during various follow-up periods of treatment. The treatment is conducted for at least twelve weeks at which time these baseline assessments are performed and compared. […]
# Plaque samples are obtained from patients following carotid endarterectomy surgery and the samples are analyzed to determine the level of plaque tissue inflammation. […]
# The co-primary efficacy variables are: the change from baseline in ex vivo plaque LTB4 synthesis in whole blood and in ex vivo plaque LTB4 concentration after 12 weeks of administration of study medication. […] The significance of the difference between the groups with respect to the ex vivo plaque LTB4 concentrations is assessed by a t-test. […]
# The secondary outcome measures of percent macrophage sectional area and number of T lymphocytes in plaque are analyzed using t-tests at the 0.05 alpha level (two sided). […]
# ApoE-deficient mice [3] = assay: Histopathological and quantitative assessment of plaque/lesion area in aortic root and aorta (Example 2, FIG. 3); format: in vivo; settings: 28-week old ApoE-deficient mice, 28 days
# Experimental: Four week old female ApoE-deficient knockout mice were fed a high-fat diet set forth in Example 1 for a period of 24 weeks to allow atherosclerotic plaque to build-up. The 28 week old ApoE-deficient mice were then randomized to receive vehicle (0.9% sterile saline administered at 5 mL/kg or compound X administered at two different doses, 10 mg/kg and 50 mg/kg, each in a volume of 5 mL/kg (from concentrations of […] respectively) daily for 28 consecutive days. Saline vehicle and compound X were all prepared fresh daily and administered orally with a 22G gavage syringe. Doses were adjusted based on most recently obtained body weight. The following two treatment groups were tested and compared: 1) the first treatment group consisted of 20 female mice treated only with saline and 20 female mice treated with 10 mg/kg of compound X and 2) the second treatment group consisted of 20 female mice treated with vehicle and 20 female mice treated with 50 mg/kg of compound X.
# The entire treatment was carried out by administering the vehicle or the dosage to the mice once a day for 28 days. […] At terminal sacrifice, aortas were harvested from 16 mice in each of the treatment groups and grossly evaluated, selected tissue from the remaining 4 mice per group were evaluated grossly and fixed and processed for histopathological analysis and quantitative determination of plaque burden.
# For quantitative assessment of the atherosclerotic process, in FIG. 2 and FIG. 3, the aortic tree of mice was prepared and described by Tabibiazar, Wagner, et al. Physiol Genomics 22(2): 213-226 (2005). The amount of plaque/lesion area in the aortic root, as well as the entire aorta, was measured. Percent lesion areas were calculated as a total lesion area divided by the total surface area. […]
# For the quantitative assessment of the atherosclerotic process in FIG. 3, the amount of plaque/lesion area in the aortic root as well as the entire aorta was measured. Percent lesion area was calculated at total lesion area divided by total surface area.
smiles,measurement,setting,value
"CC(C#Cc1ccc(Cc2ccc(F)cc2)s1)N(O)C(N)=O (stereo not shown) [compound X, N-[3-[5-[(4-fluorophenyl)methyl]-2-thienyl]-1-methyl-2-propynyl]-N-hydroxyurea]","atherosclerotic lesions in the proximal aorta, aortic arch, thoracic and abdominal aorta (gross pathological score)","ApoE-deficient mice [1]; 10 mg/kg/day or 50 mg/kg/day oral, vs vehicle",substantial reduction of atherosclerotic lesions
same,plaque burden in the proximal aorta and aortic arch compared to vehicle,ApoE-deficient mice [1]; 10 and 50 mg/kg/day oral,statistically significant reductions in plaque burden
same,"number of ischemic lesions after carotid endarterectomy by brain MRI using DWI, vs placebo group",[2]; 12 weeks,reduction in the number of ischemic lesions
same,"level of biomarkers and plaque tissue inflammation, percentage of patients vs placebo group",[2]; 12 weeks of dosing,reduction in the level of biomarkers and plaque tissue inflammation
same,atherosclerotic plaque formation in the aortic root (histopathological evaluation),"ApoE-deficient mice [3]; 10 mg/kg (p<0.07) and 50 mg/kg (p<0.001) oral, vs vehicle",dose dependent reduction of atherosclerotic plaque formation
same,reduction in mean lesion area compared to vehicle,"ApoE-deficient mice [3]; 50 mg/kg oral, statistically significant",approximately 45%
same,percent plaque lesion area in the aortas,"ApoE-deficient mice [3]; 10 and 50 mg/kg/day oral, vs vehicle, dose dependent",marked reduction of percent plaque lesion area
